Assay results as given in patent publication US20150265703A1, “COMBINATION THERAPY OF AN AFUCOSYLATED CD20 ANTIBODY WITH A mTOR INHIBITOR” (ROCHE GLYCART AG, priority 2010, published 2015).

Test system: SU-DHL-4 human lymphoma cells
Assay: Tumor growth inhibition study in vivo, SC SU-DHL-4 tumors in SCID beige mice
Settings: for SU-DHL-4 tumors growth in comparison with tumors from vehicle-treated animals: 3 mg/kg, single agent; for T/C (%) values of the treatment groups compared to the vehicle group: day 46 after tumor cell injection, GA101 3 mg/kg IV Q7Dx4, Torisel 3 mg/kg IP Q3Dx10, SC SU-DHL-4 tumors, SCID beige mice
Experimental: Test Agents Type II anti-CD20 antibody B-HH6-B-KV1 GE (=humanized B-Ly1, glycoengineered B-HH6-B-KV1=GA101; see WO 2005/044859 and WO 2007/031875) was provided from GlycArt, Schlieren, Switzerland. Antibody buffer included histidine, trehalose and polysorbate 20. Antibody solution was diluted appropriately in PBS from stock for prior injections. Temsirolimus (Torisel®, 25 mg/ml, Wyeth Pharmaceuticals) was supplied by Oncodesign and stored at +4° C. protected from light according to the supplier's instructions.
SU-DHL-4 human lymphoma cells (DSMZ NO.: ACC 495) were grown as a suspension at 37° C. in a humidified atmosphere (5% CO2, 95% air). The culture medium was RPMI 1640 containing 2 mM L-glutamine (Ref BE12-702F, Batch N° 8MB0056, Lonza, Verviers, Belgium) and supplemented with 10% fetal bovine serum (Ref 3302, Batch N^o P282005, Lonza). The cells were counted in a hemocytometer and their viability was assessed by 0.25% trypan blue exclusion.
Female CB17 SCID beige mice, 5-6 week-old and weighing 16-20 g, were obtained from Charles River (L'Arbresle, France).
Ten millions (10^7) SU-DHL-4 tumor cells in 100 μl of PBS with matrigel (50:50, BD Biosciences, France) were subcutaneously (SC) injected into the right flank of 52 female SCID beige mice.
All study data, including animal body weight measurements, tumor volume, clinical and mortality records, and drug treatment management were managed using Vivo Manager® software (Biosystemes, Dijon, France).
Isoflurane Forene (Minerve, Bondoufle, France) was used to anaesthetize the animals before SC inoculation of tumor cells, IV injection of compounds and sacrifice. Mortality, clinical signs and behaviour were recorded every day. Animal body weights and tumor volumes were monitored and recorded twice a week.
When the tumors reached a mean volume of 173±95 mm^3, 40 out of 52 tumor bearing […] mice were distributed in 4 groups of 10 mice. The treatment schedule was chosen as following: • Mice from group 1 received once weekly IV bolus injection of vehicle for 4 consecutive weeks (Q7Dx4). • Mice from group 2 received once weekly IV bolus injection of anti-CD20 antibody GA101 (B-HH6-B-KV1 GE) at 3 mg/kg/inj for 4 consecutive weeks (Q7Dx4). • Mice from group 3 received once daily IP injection of Torisel® at 3 mg/kg/inj with a 3-day interval between each dosing and a total of 10 injections (Q3Dx10). • Mice from group 4 received once weekly IV bolus injection of anti-CD20 antibody GA101 (B-HH6-B-KV1 GE) at 3 mg/kg/inj for 4 consecutive weeks (Q7Dx4) in combination with once daily IP injection of Torisel® at 3 mg/kg/inj with a 3-day interval between each dosing and a total of 10 injections (Q3Dx10)].
The antitumor efficacy of anti-CD20 antibody GA101 (B-HH6-B-KV1 GE) alone and in combination with Torisel® was examined. […]

Compound | SU-DHL-4 tumors growth in comparison with tumors from vehicle-treated animals | T/C (%) values of the treatment groups compared to the vehicle group [%]
GA101: Type II anti-CD20 antibody, humanized B-Ly1, glycoengineered B-HH6-B-KV1 (VH SEQ ID NO:7, VL SEQ ID NO:20), afucosylated IgG1 | partially delayed | 51
CO[C@H]1C[C@@H]2CC[C@@H](C)[C@@](O)(O2)C(=O)C(=O)N2CCCC[C@H]2C(=O)O[C@H]([C@H](C)C[C@@H]2CC[C@@H](OC(=O)C(C)(CO)CO)[C@H](OC)C2)CC(=O)[C@H](C)/C=C(\C)[C@@H](O)[C@@H](OC)C(=O)[C@H](C)C[C@H](C)/C=C/C=C/C=C/1C [Torisel, Temsirolimus] | partially delayed | 60
